Patent US20110044938A1 (NYCOMED GMBH, priority 2006, published 2011)

Experiments:
[1] = test system: RKO (RKOp27) human colon adenocarcinoma cells; test: Alamar Blue cell viability assay, anti-proliferative/cytotoxic activity on proliferating RKO subclones; assay type: cell-based; details: RKOp27, 72 h, RKO p27 uninduced (proliferating) cells, value = class bound given in Table A, read-out: −logIC50 RKO p27 uninduced (proliferating) (converted)
In short: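 Alamar Blue fluorescence (ex 544, em 590 nm) after 72 h compound exposure at 37 °C, 5% CO2, normalised to untreated controls set at 100%. Cells were seeded at 5000 per well and dosed 24 h later with serial semi-logarithmic dilutions in 10% FCS DMEM, four replicates each. −log IC50 [mol/l] was derived from concentration-effect curves.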

[2] = test system: subclones of RKO colon adenocarcinoma cells (RKOp27 or RKOp21) arrested by Ponasterone A; test: Alamar Blue cell viability assay, cell cycle specific mode of action: cells arrested by ectopic p27Kip1 induced by Ponasterone A versus proliferating cells; assay type: cell-based; details: Homo sapiens, RKO p27 induced (arrested) cells, 10 μM Ponasterone A, 72 hours, value = class bound given in Table A, read-out: −logIC50 RKO p27 induced (arrested) (converted)
In short: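 Viability of proliferating versus Ponasterone A (10 μM)-arrested RKOp27/RKOp21 cells after 72 h compound exposure at 37° C, in quadruplicate. Read-out is Alamar Blue fluorescence (544/590 nm) normalised to untreated cells = 100%; values as −log IC50.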

Structure (SMILES) | IC50 [1] [µM] | IC50 [2] [µM]
Cc1nn(C)cc1CNC(=O)OC1CCc2c(sc(NC(=O)/C=C/c3cccnc3)c2C#N)C1 (stereo not shown) [Example 57, (1,3-Dimethyl-1H-pyrazol-4-ylmethyl)-carbamic acid 3-cyano-2-((E)-3-pyridin-3-yl-allanoylamino)-4,5,6,7-tetrahydro-benzo[b]thiophen-6-yl ester] | ≤ 0.501 | ≥ 100
Cc1oncc1CNC(=O)OC1CCc2c(sc(NC(=O)/C=C/c3cccnc3)c2C#N)C1 (stereo not shown) [Example 58, (5-Methyl-isoxazol-4-ylmethyl)-carbamic acid 3-cyano-2-((E)-3-pyridin-3-yl-allanoylamino)-4,5,6,7-tetrahydro-benzo[b]thiophen-6-yl ester] | 0.501 to 2 | ≥ 100
Cc1nocc1CNC(=O)OC1CCc2c(sc(NC(=O)/C=C/c3cccnc3)c2C#N)C1 (stereo not shown) [Example 59, (3-Methyl-isoxazol-4-ylmethyl)-carbamic acid 3-cyano-2-((E)-3-pyridin-3-yl-allanoylamino)-4,5,6,7-tetrahydro-benzo[b]thiophen-6-yl ester] | ≤ 0.501 | ≥ 100
N#Cc1c(NC(=O)/C=C/c2cccnc2)sc2c1CCC(OC(=O)NCc1ccno1)C2 (stereo not shown) [Example 60, Isoxazol-5-ylmethyl-carbamic acid 3-cyano-2-((E)-3-pyridin-3-yl-allanoylamino)-4,5,6,7-tetrahydro-benzo[b]thiophen-6-yl ester] | 0.501 to 2 | ≥ 100
N#Cc1c(NC(=O)/C=C/c2cccnc2)sc2c1CCC(OC(=O)N1CCOCC1)C2 (stereo not shown) [Example 61, Morpholine-4-carboxylic acid 3-cyano-2-((E)-3-pyridin-3-yl-allanoylamino)-4,5,6,7-tetrahydro-benzo[b]thiophen-6-yl ester] | ≤ 0.501 | ≥ 100
N#Cc1c(NC(=O)/C=C/c2cccnc2)sc2c1CCC(OC(=O)N1CCCC1)C2 (stereo not shown) [Example 62, Pyrrolidine-1-carboxylic acid 3-cyano-2-((E)-3-pyridin-3-yl-allanoylamino)-4,5,6,7-tetrahydro-benzo[b]thiophen-6-yl ester] | ≤ 0.501 | ≥ 100
N#Cc1c(NC(=O)/C=C/c2cccnc2)sc2c1CCC(COC(=O)NCC1CCCO1)C2 (stereo not shown) [Example 63, (Tetrahydro-furan-2-ylmethyl)-carbamic acid 3-cyano-2-((E)-3-pyridin-3-yl-allanoylamino)-4,5,6,7-tetrahydro-benzo[b]thiophen-6-ylmethyl ester] | 0.501 to 2 | ≥ 100
Cc1nocc1CNC(=O)OCC1CCc2c(sc(NC(=O)/C=C/c3cccnc3)c2C#N)C1 (stereo not shown) [Example 64, (3-Methyl-isoxazol-4-ylmethyl)-carbamic acid 3-cyano-2-((E)-3-pyridin-3-yl-allanoylamino)-4,5,6,7-tetrahydro-benzo[b]thiophen-6-ylmethyl ester] | 0.501 to 2 | ≥ 100
N#Cc1c(NC(=O)/C=C/c2cccnc2)sc2c1CCC(COC(=O)NCc1nccs1)C2 (stereo not shown) [Example 65, Thiazol-2-ylmethyl-carbamic acid 3-cyano-2-((E)-3-pyridin-3-yl-allanoylamino)-4,5,6,7-tetrahydro-benzo[b]thiophen-6-ylmethyl ester] | 0.501 to 2 | ≥ 100
Cc1nc(CNC(=O)OCC2CCc3c(sc(NC(=O)/C=C/c4cccnc4)c3C#N)C2)cs1 (stereo not shown) [Example 66, (2-Methyl-thiazol-4-ylmethyl)-carbamic acid 3-cyano-2-((E)-3-pyridin-3-yl-allanoylamino)-4,5,6,7-tetrahydro-benzo[b]thiophen-6-ylmethyl ester] | ≤ 0.501 | ≥ 100
Cc1csc(CNC(=O)OCC2CCc3c(sc(NC(=O)/C=C/c4cccnc4)c3C#N)C2)n1 (stereo not shown) [Example 67, (4-Methyl-thiazol-2-ylmethyl)-carbamic acid 3-cyano-2-((E)-3-pyridin-3-yl-allanoylamino)-4,5,6,7-tetrahydro-benzo[b]thiophen-6-ylmethyl ester] | ≤ 0.501 | ≥ 100
N#Cc1c(NC(=O)/C=C/c2cccnc2)sc2c1CCC(COC(=O)N1CCCC1)C2 (stereo not shown) [Example 68, Pyrrolidine-1-carboxylic acid 3-cyano-2-((E)-3-pyridin-3-yl-allanoylamino)-4,5,6,7-tetrahydro-benzo[b]thiophen-6-ylmethyl ester] | ≤ 0.501 | ≥ 100
N#Cc1c(NC(=O)/C=C/c2cccnc2)sc2c1CC[C@H](COC(=O)N1CCCC1)C2 [Example 68a, Pyrrolidme-1-carboxyhc acid (S)-3-cyano-2-((E)-3-pyridin-3-yl-allanoylamino)-4,5,6,7-tetrahydro-benzo[b]thiophen-6-ylmethyl ester] | ≤ 0.501 | ≥ 100
N#Cc1c(NC(=O)/C=C/c2cccnc2)sc2c1CC[C@@H](COC(=O)N1CCCC1)C2 [Example 68b, Pyrrolidine-1-carboxylic acid (R)-3-cyano-2-((E)-3-pyridin-3-yl-allanoylamino)-4,5,6,7-tetrahydro-benzo[b]thiophen-6-ylmethyl ester] | ≤ 0.501 | ≥ 100
CCn1nccc1CNC(=O)OC1CCc2c(sc(NC(=O)/C=C/c3cccnc3)c2C#N)C1 (stereo not shown) [Example 69, (2-Ethyl-2H-pyrazol-3-ylmethyl)-carbamic acid 3-cyano-2-((E)-3-pyridin-3-yl-allanoylamino)-4,5,6,7-tetrahydro-benzo[b]thiophen-6-yl ester] | ≤ 0.501 | ≥ 100
N#Cc1c(NC(=O)/C=C/c2cccnc2)sc2c1CCC(OC(=O)NCC1CCCO1)C2 (stereo not shown) [Example 70, (Tetrahydro-furan-2-ylmethyl)-carbamic acid 3-cyano-2-((E)-3-pyridin-3-yl-allanoylamino)-4,5,6,7-tetrahydro-benzo[b]thiophen-6-yl ester] | 0.501 to 2 | ≥ 100
Cc1oncc1CNC(=O)OCC1CCc2c(sc(NC(=O)/C=C/c3cccnc3)c2C#N)C1 (stereo not shown) [Example 71, (5-Methyl-isoxazol-4-ylmethyl)-carbamic acid 3-cyano-2-((E)-3-pyridin-3-yl-allanoylamino)-4,5,6,7-tetrahydro-benzo[b]thiophen-6-ylmethyl ester] | 0.501 to 2 | ≥ 100
Cc1nnc(CNC(=O)OCC2CCc3c(sc(NC(=O)/C=C/c4cccnc4)c3C#N)C2)o1 (stereo not shown) [Example 72, (5-Methyl-[1,3,4]oxadiazol-2-ylmethyl)-carbamic acid 3-cyano-2-((E)-3-pyridin-3-yl-allanoylamino)-4,5,6,7-tetrahydro-benzo[b]thiophen-6-ylmethyl ester] | ≤ 0.501 | ≥ 100
N#Cc1c(NC(=O)/C=C/c2cccnc2)sc2c1CCC(COC(=O)N1CC(O)C1)C2 (stereo not shown) [Example 73, 3-Hydroxy-azetidine-1-carboxylic acid 3-cyano-2-((E)-3-pyridin-3-yl-allanoylamino)-4,5,6,7-tetrahydro-benzo[b]thiophen-6-ylmethyl ester] | ≤ 0.501 | ≥ 100
N#Cc1c(NC(=O)/C=C/c2cccnc2)sc2c1CC[C@H](COC(=O)N1CC(O)C1)C2 [Example 73a, 3-Hydroxy-azetidine-1 - carboxylic acid (S)-3-cyano-2-((E)-3-pyridin-3-yl-allanoylamino)-4,5,6,7-tetrahydro-benzo[b]thiophen-6-ylmethyl ester] | ≤ 0.501 | ≥ 100
